± gives the expanded uncertainty stated by the source.
Conditions: 101.33 kPa, Liquid, Pycnometric method

Q: With `Fc1ccc(F)c(F)c1` [1,2,4-trifluorobenzene] as the molecule, how does the mass density (296.6 K) read?
A: Its mass density is 1280 ± 36 kg/m3.

Q: What about the mass density (330.7 K) of the same molecule?
A: The mass density was 1247 ± 36 kg/m3.

Q: For `Fc1ccccc1F` [1,2-difluorobenzene], which mass density (296.2 K) is on record?
A: Its mass density is 1156 ± 36 kg/m3.

Q: And the mass density (331.1 K)?
A: Its mass density is 1117 ± 36 kg/m3.

Q: Which mass density (297.2 K) does the source give for `Fc1cc(F)cc(F)c1` [1,3,5-trifluorobenzene] here?
A: Its mass density is 1268 ± 36 kg/m3.

Q: What about the mass density (324.9 K) of the same molecule?
A: Its mass density is 1225 ± 36 kg/m3.

Q: With `Fc1cccc(F)c1` [1,3-difluorobenzene] as the molecule, how does the mass density (296.2 K) read?
A: Its mass density is 1139 ± 36 kg/m3.

Q: And the mass density (330.6 K)?
A: The mass density was 1094 ± 36 kg/m3.

Q: Which mass density (296.1 K) does the source give for `Fc1ccc(F)cc1` [1,4-difluorobenzene] here?
A: Its mass density is 1146 ± 36 kg/m3.

Q: And the mass density (327.2 K)?
A: The mass density was 1110 ± 36 kg/m3.

Q: For `Fc1ccccc1` [fluorobenzene], which mass density (296.2 K) is on record?
A: The mass density was 1022 ± 16 kg/m3.

Q: And the mass density (330.1 K)?
A: Its mass density is 985 ± 16 kg/m3.

Q: Which results are given for `Fc1cc(F)c(F)c(F)c1F` [pentafluorobenzene]?
A: mass density (296.9 K): 1511 ± 20 kg/m3; mass density (327.6 K): 1453 ± 20 kg/m3

Source: the NIST ThermoML archive (doi:10.1021/je8006474)
